Assay results reported in BindingDB's records for doi:10.1016/j.ejmech.2011.07.022 (Medical University of Warsaw, 2011).

Target: T1, 5-hydroxytryptamine receptor 1A (Rattus norvegicus, UniProt P19327)
T1 sequence (P19327 whole entry): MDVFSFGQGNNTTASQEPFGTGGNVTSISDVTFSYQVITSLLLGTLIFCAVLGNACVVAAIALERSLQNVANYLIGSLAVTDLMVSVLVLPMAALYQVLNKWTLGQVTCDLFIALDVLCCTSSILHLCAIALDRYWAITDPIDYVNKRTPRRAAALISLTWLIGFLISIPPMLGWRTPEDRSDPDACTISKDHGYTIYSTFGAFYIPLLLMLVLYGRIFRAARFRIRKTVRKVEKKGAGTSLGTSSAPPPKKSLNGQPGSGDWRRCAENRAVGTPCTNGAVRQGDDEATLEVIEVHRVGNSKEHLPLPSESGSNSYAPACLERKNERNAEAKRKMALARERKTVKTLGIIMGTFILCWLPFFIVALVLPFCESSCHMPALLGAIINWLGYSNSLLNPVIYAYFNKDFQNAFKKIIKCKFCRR
Test: Displacement of [3H]8OH-DPAT from 5HT1A in rat brain cerebral cortex after 15 mins by scintillation counting

`COc1ccc(Cl)cc1C(=O)NC1C[C@H]2CC[C@H](C1)N2Cc1ccco1` (stereo partly specified) was tested. Which Ki did it give?
Its Ki is > 100 µM.
